Laboratory results published in patent US20230220021A1, “CYCLIC PEPTIDE INHIBITORS OF PSD-95 AND USES THEREOF” (University of Copenhagen, priority 2020, published 2023).
Read-outs that look alike come from different tables or passages of the source. Where a SMILES comes first, the peptide text is derived from it. [ ]: non-standard residue; d: D form.

Molecular target: T1, PSD-95-PDZ2 (Homo sapiens, UniProt P78352)
T1 construct: 7xHis (N); made in house; host or cells: Escherichia coli B21 pLys (for the mutants, 'as previously described')
Assay: Fluorescence polarization (FP) competition assay against cyclic nNOS TAMRA probe
Format: binding
Conditions: for Ki: cyclic nNOS TAMRA probe, mean of triplicates, N.B. = not binding; for fold improved binding affinity: N-methylation; for Relative Ki (Ki mut/Ki WT): FP inhibition constant normalized to WT value

T1 sequence (P78352 160-246 limits assumed): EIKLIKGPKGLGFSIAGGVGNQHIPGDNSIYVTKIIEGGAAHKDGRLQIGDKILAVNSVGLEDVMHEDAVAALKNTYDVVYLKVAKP

| Ki (FP competition) | Ki (FP competition, read-out: Ki) | Relative Ki (Ki mut/Ki WT) | Compound | also measured |
| --- | --- | --- | --- | --- |
| N.B. | – | – | 80 (THLEXTFTGDGTPKTIRVTQPGQ; cyclized peptide; (5)..(5) X is AlloT; (21)..(21) is D-AA) [compound 80] | – |
| N.B. | – | – | 85 (TXLETTFTGDGTPKTIRVTQPGQ; cyclized peptide; (2)..(2) X is N-Me-H; (21)..(21) is D-AA) [compound 85] | – |
| N.B. | – | – | 86 (THXETTFTGDGTPKTIRVTQPGQ; cyclized peptide; (3)..(3) X is N-Me-L; (21)..(21) is D-AA) [compound 86] | – |
| N.B. | – | – | 87 (THLXTTFTGDGTPKTIRVTQPGQ; cyclized peptide; (4)..(4) X is N-Me-E; (21)..(21) is D-AA) [compound 87] | – |
| N.B. | – | – | 90 (THLETTXTGDGTPKTIRVTQPGQ; cyclized peptide; (7)..(7) X is N-Me-F; (21)..(21) is D-AA) [compound 90] | – |
| N.B. | – | – | 104 (THLEXTFTGDGTPKTIRVTQPGQ; cyclized peptide; (5)..(5) X is pT; (21)..(21) is D-AA) [compound 104] | – |
| N.B. | – | – | 105 (THLETXFTGDGTPKTIRVTQPGQ; cyclized peptide; (6)..(6) X is pT; (21)..(21) is D-AA) [compound 105] | – |
| N.B. | – | – | 108 (THLETTFTGDGTPKXIRVTQPGQ; cyclized peptide; (15)..(15) X is pT; (21)..(21) is D-AA) [compound 108] | – |
| – | – | – | CC[C@H](C)[C@@H]1NC(=O)[C@H]([C@@H](C)O)NC(=O)[C@H](CCCCN)NC(=O)[C@@H]2CCCN2C(=O)[C@H]([C@@H](C)O)NC(=O)CNC(=O)[C@H](CC(=O)O)NC(=O)CNC(=O)[C@H]([C@@H](C)O)NC(=O)[C@H](Cc2ccccc2)NC(=O)[C@H]([C@@H](C)O)NC(=O)[C@H]([C@@H](C)O)NC(=O)[C@H](CCC(=O)O)NC(=O)[C@H](CC(C)C)NC(=O)[C@H](Cc2c[nH]cn2)NC(=O)[C@H]([C@@H](C)O)N(C)C(=O)[C@H](CCC(N)=O)NC(=O)CNC(=O)[C@H]2CCCN2C(=O)[C@H](CCC(N)=O)NC(=O)[C@H]([C@@H](C)O)NC(=O)[C@H](C(C)C)NC(=O)[C@H](CCCNC(=N)N)NC1=O [SEQ ID NO: 84] | fold lowered (decreased) binding affinity of the cyclic peptide (FP competition, relative to unsubstituted cyclic peptide): 5 fold |
| – | 500 ± 100 nM | – | CC[C@H](C)[C@@H]1NC(=O)[C@H]([C@@H](C)O)NC(=O)[C@H](CCCCN)N(C)C(=O)[C@@H]2CCCN2C(=O)[C@H]([C@@H](C)O)NC(=O)CNC(=O)[C@H](CC(=O)O)NC(=O)CNC(=O)[C@H]([C@@H](C)O)NC(=O)[C@H](Cc2ccccc2)NC(=O)[C@H]([C@@H](C)O)NC(=O)[C@H]([C@@H](C)O)NC(=O)[C@H](CCC(=O)O)NC(=O)[C@H](CC(C)C)NC(=O)[C@H](Cc2c[nH]cn2)NC(=O)[C@H]([C@@H](C)O)NC(=O)[C@H](CCC(N)=O)NC(=O)CNC(=O)[C@H]2CCCN2C(=O)[C@H](CCC(N)=O)NC(=O)[C@H]([C@@H](C)O)NC(=O)[C@H](C(C)C)NC(=O)[C@H](CCCNC(=N)N)NC1=O [SEQ ID NO: 96] | fold improved binding affinity (FP competition): 2 fold |
| – | 600 ± 100 nM | – | CC[C@H](C)[C@@H]1NC(=O)[C@H]([C@@H](C)O)NC(=O)[C@H](CCCCN)NC(=O)[C@@H]2CCCN2C(=O)[C@H]([C@@H](C)O)NC(=O)CNC(=O)[C@H](CC(=O)O)NC(=O)CNC(=O)[C@H]([C@@H](C)O)NC(=O)[C@H](Cc2ccccc2)NC(=O)[C@H]([C@@H](C)O)NC(=O)[C@H]([C@@H](C)O)NC(=O)[C@H](CCC(=O)O)NC(=O)[C@H](CC(C)C)NC(=O)[C@H](Cc2c[nH]cn2)NC(=O)[C@H]([C@@H](C)O)NC(=O)[C@H](CCC(N)=O)NC(=O)CNC(=O)[C@H]2CCCN2C(=O)[C@H](CCC(N)=O)NC(=O)[C@H]([C@@H](C)O)N(C)C(=O)[C@H](C(C)C)NC(=O)[C@H](CCCNC(=N)N)NC1=O [SEQ ID NO: 101] | fold improved binding affinity (FP competition): 2 fold |
| – | 1500 ± 200 nM | – | CC[C@H](C)[C@@H]1NC(=O)[C@H]([C@@H](C)O)NC(=O)[C@H](CCCCN)NC(=O)[C@@H]2CCCN2C(=O)[C@H]([C@@H](C)O)NC(=O)CNC(=O)[C@H](CC(=O)O)NC(=O)CNC(=O)[C@H]([C@@H](C)O)NC(=O)[C@H](Cc2ccccc2)NC(=O)[C@H]([C@@H](C)O)NC(=O)[C@H]([C@@H](C)O)NC(=O)[C@H](CCC(=O)O)NC(=O)[C@H](CC(C)C)NC(=O)[C@H](Cc2c[nH]cn2)NC(=O)[C@H]([C@@H](C)O)NC(=O)[C@H](CCC(N)=O)NC(=O)CNC(=O)[C@H]2CCCN2C(=O)[C@H](CCC(N)=O)NC(=O)[C@H]([C@@H](C)O)NC(=O)[C@H](C(C)C)NC(=O)[C@H](CCCNC(=N)N)NC1=O [SEQ ID NO: 433] | – |
| – | 720 nM | 0.48 | CC[C@H](C)[C@@H]1NC(=O)[C@H]([C@@H](C)O)NC(=O)[C@H](CCCCN)NC(=O)[C@@H]2CCCN2C(=O)[C@H]([C@@H](C)O)NC(=O)CNC(=O)[C@H](CC(=O)O)NC(=O)CNC(=O)[C@H](Cc2c[nH]c3ccccc23)NC(=O)[C@H](Cc2ccccc2)NC(=O)[C@H]([C@@H](C)O)NC(=O)[C@H]([C@@H](C)O)NC(=O)[C@H](CCC(=O)O)NC(=O)[C@H](CC(C)C)NC(=O)[C@H](Cc2c[nH]cn2)NC(=O)[C@H]([C@@H](C)O)NC(=O)[C@H](CCC(N)=O)NC(=O)CNC(=O)[C@H]2CCCN2C(=O)[C@H](CCC(N)=O)NC(=O)[C@H]([C@@H](C)O)NC(=O)[C@H](C(C)C)NC(=O)[C@H](CCCNC(=N)N)NC1=O [compound 18] (cyclo(THLETTFWGDGTPKTIRVTQ[dP]GQ)) | – |
| – | 950 nM | 0.63 | CC[C@H](C)[C@@H]1NC(=O)[C@H]([C@@H](C)O)NC(=O)[C@H](CCCCN)NC(=O)[C@@H]2CCCN2C(=O)[C@H]([C@@H](C)O)NC(=O)CNC(=O)[C@H](CC(=O)O)NC(=O)CNC(=O)[C@H](CC(=O)O)NC(=O)[C@H](Cc2ccccc2)NC(=O)[C@H]([C@@H](C)O)NC(=O)[C@H]([C@@H](C)O)NC(=O)[C@H](CCC(=O)O)NC(=O)[C@H](CC(C)C)NC(=O)[C@H](Cc2c[nH]cn2)NC(=O)[C@H]([C@@H](C)O)NC(=O)[C@H](CCC(N)=O)NC(=O)CNC(=O)[C@H]2CCCN2C(=O)[C@H](CCC(N)=O)NC(=O)[C@H]([C@@H](C)O)NC(=O)[C@H](C(C)C)NC(=O)[C@H](CCCNC(=N)N)NC1=O [compound 19] (cyclo(THLETTFDGDGTPKTIRVTQ[dP]GQ)) | – |
| – | – | 0.80 | CC[C@H](C)[C@@H]1NC(=O)[C@H]([C@@H](C)O)NC(=O)[C@H](CCCCN)NC(=O)[C@@H]2CCCN2C(=O)[C@H]([C@@H](C)O)NC(=O)CNC(=O)[C@H](CC(=O)O)NC(=O)CNC(=O)[C@H]([C@@H](C)O)NC(=O)[C@H](Cc2ccccc2)NC(=O)[C@H]([C@@H](C)O)NC(=O)[C@H]([C@@H](C)O)NC(=O)[C@H](CCC(=O)O)NC(=O)[C@H](CCCCN)NC(=O)[C@H](Cc2c[nH]cn2)NC(=O)[C@H]([C@@H](C)O)NC(=O)[C@H](CCC(N)=O)NC(=O)CNC(=O)[C@H]2CCCN2C(=O)[C@H](CCC(N)=O)NC(=O)[C@H]([C@@H](C)O)NC(=O)[C@H](C(C)C)NC(=O)[C@H](CCCNC(=N)N)NC1=O [compound 22] (cyclo(THKETTFTGDGTPKTIRVTQ[dP]GQ)) | – |
| – | 6190 nM | 4.13 | CC[C@H](C)[C@@H]1NC(=O)[C@H]([C@@H](C)O)NC(=O)[C@H](CCCCN)NC(=O)[C@@H]2CCCN2C(=O)[C@H]([C@@H](C)O)NC(=O)CNC(=O)[C@H](CC(=O)O)NC(=O)CNC(=O)[C@H]([C@@H](C)O)NC(=O)[C@H](Cc2ccccc2)NC(=O)[C@H]([C@@H](C)O)NC(=O)[C@H]([C@@H](C)O)NC(=O)[C@H](CCC(=O)O)NC(=O)[C@H](CC(C)C)NC(=O)[C@H](CCC(=O)O)NC(=O)[C@H]([C@@H](C)O)NC(=O)[C@H](CCC(N)=O)NC(=O)CNC(=O)[C@H]2CCCN2C(=O)[C@H](CCC(N)=O)NC(=O)[C@H]([C@@H](C)O)NC(=O)[C@H](C(C)C)NC(=O)[C@H](CCCNC(=N)N)NC1=O [compound 23] (cyclo(TELETTFTGDGTPKTIRVTQ[dP]GQ)) | – |
| – | – | 3.00 | CC[C@H](C)[C@@H]1NC(=O)[C@H]([C@@H](C)O)NC(=O)[C@H](CCCCN)NC(=O)[C@@H]2CCCN2C(=O)[C@H]([C@@H](C)O)NC(=O)CNC(=O)[C@H](CC(=O)O)NC(=O)CNC(=O)[C@H]([C@@H](C)O)NC(=O)[C@H](Cc2ccccc2)NC(=O)[C@H]([C@@H](C)O)NC(=O)[C@H]([C@@H](C)O)NC(=O)[C@H](CCC(=O)O)NC(=O)[C@H](CC(C)C)NC(=O)[C@H](Cc2c[nH]cn2)NC(=O)CNC(=O)[C@H](CCC(N)=O)NC(=O)CNC(=O)[C@H]2CCCN2C(=O)[C@H](CCC(N)=O)NC(=O)[C@H]([C@@H](C)O)NC(=O)[C@H](C(C)C)NC(=O)[C@H](CCCNC(=N)N)NC1=O [compound 25] (cyclo(GHLETTFTGDGTPKTIRVTQ[dP]GQ)) | – |
| – | – | 0.79 | CC[C@H](C)[C@@H]1NC(=O)[C@H]([C@@H](C)O)NC(=O)[C@H](CCCCN)NC(=O)[C@@H]2CCCN2C(=O)[C@H]([C@@H](C)O)NC(=O)CNC(=O)[C@H](CC(=O)O)NC(=O)CNC(=O)[C@H]([C@@H](C)O)NC(=O)[C@H](Cc2ccccc2)NC(=O)[C@H]([C@@H](C)O)NC(=O)[C@H]([C@@H](C)O)NC(=O)[C@H](CCC(=O)O)NC(=O)[C@H](CC(C)C)NC(=O)[C@H](Cc2ccc(O)cc2)NC(=O)[C@H]([C@@H](C)O)NC(=O)[C@H](CCC(N)=O)NC(=O)CNC(=O)[C@H]2CCCN2C(=O)[C@H](CCC(N)=O)NC(=O)[C@H]([C@@H](C)O)NC(=O)[C@H](C(C)C)NC(=O)[C@H](CCCNC(=N)N)NC1=O [compound 26] (cyclo(TYLETTFTGDGTPKTIRVTQ[dP]GQ)) | – |
| – | – | 0.79 | CC[C@H](C)[C@@H]1NC(=O)[C@H]([C@@H](C)O)NC(=O)[C@H](CCCCN)NC(=O)[C@@H]2CCCN2C(=O)[C@H]([C@@H](C)O)NC(=O)CNC(=O)[C@H](CC(=O)O)NC(=O)CNC(=O)[C@H]([C@@H](C)O)NC(=O)[C@H](Cc2ccccc2)NC(=O)[C@H]([C@@H](C)O)NC(=O)[C@H]([C@@H](C)O)NC(=O)[C@H](CCC(=O)O)NC(=O)[C@H](CC(C)C)NC(=O)[C@H](Cc2ccccc2)NC(=O)[C@H]([C@@H](C)O)NC(=O)[C@H](CCC(N)=O)NC(=O)CNC(=O)[C@H]2CCCN2C(=O)[C@H](CCC(N)=O)NC(=O)[C@H]([C@@H](C)O)NC(=O)[C@H](C(C)C)NC(=O)[C@H](CCCNC(=N)N)NC1=O [compound 27] (cyclo(TFLETTFTGDGTPKTIRVTQ[dP]GQ)) | – |
